Patent US9511058B2, “Methods for using carboxamide, sulfonamide and amine compounds” (Rigel Pharmaceuticals, Inc., priority 2010, dated 2016)

Molecular target: AMPK
Test: AMPK activation, enzyme-linked immunosorbent assay
Assay type: biochemical
Details: compounds of Table 1 (Table 6)
Description: Compounds of Table 1 were assayed for their ability to activate AMPK using an enzyme-linked immunosorbent assay.
Compounds of Table 2 were assayed for their ability to activate AMPK using an enzyme-linked immunosorbent assay.
Compounds of Table 3 were assayed for their ability to activate AMPK using an enzyme-linked immunosorbent assay.
Compounds of Table 4 were assayed for their ability to activate AMPK using an enzyme-linked immunosorbent assay.
Compounds of Table 5 were assayed for their ability to activate AMPK using an enzyme-linked immunosorbent assay.

| SMILES | EC50 |
| --- | --- |
| N#Cc1ccc(N2CCC(Oc3ccc(C(=O)NC4CCN(Cc5ccncc5)CC4)nc3)CC2)cc1 [1-1, 5-(1-(4-cyanophenyl)piperidin-4-yloxy)-N-(1-(pyridin-4-ylmethyl)piperidin-4-yl)picolinamide] | 100 to 500 nM |
| O=C(NC1CCN(Cc2ccncc2)CC1)c1ccc(OC2CCN(c3ccc(C(F)(F)F)cc3)CC2)cn1 [1-3, N-(1-(pyridin-4-ylmethyl)piperidin-4-yl)-5-(1-(4-(trifluoromethyl)phenyl)piperidin-4-yloxy)picolinamide] | < 100 nM |
| N#Cc1ccc(N2CCC(Oc3ccc(C(=O)NC4CCN(Cc5cccnc5)CC4)nc3)CC2)cc1 [1-6, N-(1-(pyridin-3-ylmethyl)piperidin-4-yl)-5-(1-(4-cyanophenyl)piperidin-4-yloxy)picolinamide] | 100 to 500 nM |
| COC(=O)c1ccc(CN2CCC(NC(=O)c3ccc(OC4CCN(c5ccc(C#N)cc5)CC4)cn3)CC2)cc1 [1-7, methyl 4-((4-(5-(1-(4-cyanophenyl)piperidin-4-yloxy)picolinamido)piperidin-1-yl)methyl)benzoate] | < 100 nM |
| O=C(NC1CCN(Cc2ccncc2)CC1)c1cc(OC2CCN(c3ccc(C(F)(F)F)cc3)CC2)ccn1 [1-13, N-(1-(pyridin-4-ylmethyl)piperidin-4-yl)-4-(1-(4-(trifluoromethyl)phenyl)piperidin-4-yloxy)picolinamide] | 100 to 500 nM |
| O=C(NC1CCNCC1)c1ccnc(OC2CCN(c3ccc(C(F)(F)F)cc3)CC2)c1 [1-19, N-(piperidin-4-yl)-2-(1-(4-(trifluoromethyl)phenyl)piperidin-4-yloxy)isonicotinamide] | 1000 to 5000 nM |
| O=C(NC1CCN(Cc2ccncc2)CC1)c1ccnc(OC2CCN(c3ccc(C(F)(F)F)cc3)CC2)c1 [1-20, N-(1-(pyridin-4-ylmethyl)piperidin-4-yl)-2-(1-(4-(trifluoromethyl)phenyl)piperidin-4-yloxy)isonicotinamide] | 500 to 1000 nM |
| N#Cc1ccc(CN2CCC(NC(=O)c3ccnc(OC4CCN(c5ccc(C(F)(F)F)cc5)CC4)c3)CC2)cc1 [1-21, N-(1-(4-cyanobenzyl)piperidin-4-yl)-2-(1-(4-(trifluoromethyl)phenyl)piperidin-4-yloxy)isonicotinamide] | 100 to 500 nM |
| CC(C)(C)OC(=O)N1CC[C@@H](NC(=O)c2ccc(OC3CCN(c4ccc(C(F)(F)F)cc4)CC3)cn2)C1 [1-23, (R)-tert-butyl 3-(5-(1-(4-(trifluoromethyl)phenyl)piperidin-4-yloxy)picolinamido)pyrrolidine-1-carboxylate] | 100 to 500 nM |
| O=C(N[C@@H]1CCNC1)c1ccc(OC2CCN(c3ccc(C(F)(F)F)cc3)CC2)cn1 [1-24, (R)-N-(pyrrolidin-3-yl)-5-(1-(4-(trifluoromethyl)phenyl)piperidin-4-yloxy)picolinamide] | 5000 to 10000 nM |
| CC(C)(C)OC(=O)N1CC[C@H](NC(=O)c2ccc(OC3CCN(c4ccc(C(F)(F)F)cc4)CC3)cn2)C1 [1-26, (S)-tert-butyl 3-(5-(1-(4-(trifluoromethyl)phenyl)piperidin-4-yloxy)picolinamido)pyrrolidine-1-carboxylate] | 100 to 500 nM |
| O=C(N[C@H]1CCNC1)c1ccc(OC2CCN(c3ccc(C(F)(F)F)cc3)CC2)cn1 [1-27, (S)-N-(pyrrolidin-3-yl)-5-(1-(4-(trifluoromethyl)phenyl)piperidin-4-yloxy)picolinamide] | > 10000 nM |

The remaining lines, values ahead:

| EC50 | SMILES |
| --- | --- |
| < 100 nM | N#Cc1ccc(CN2CCC(NC(=O)c3ccc(OC4CCN(c5ccc(C#N)cc5)CC4)cn3)CC2)cc1 [1-2, N-(1-(4-cyanobenzyl)piperidin-4-yl)-5-(1-(4-cyanophenyl)piperidin-4-yloxy)picolinamide] |
| < 100 nM | N#Cc1ccc(CN2CCC(NC(=O)c3ccc(OC4CCN(c5ccc(C(F)(F)F)cc5)CC4)cn3)CC2)cc1 [1-4, N-(1-(4-cyanobenzyl)piperidin-4-yl)-5-(1-(4-(trifluoromethyl)phenyl)piperidin-4-yloxy)picolinamide] |
| < 100 nM | O=C(NC1CCN(Cc2cccnc2)CC1)c1ccc(OC2CCN(c3ccc(C(F)(F)F)cc3)CC2)cn1 [1-5, N-(1-(pyridin-3-ylmethyl)piperidin-4-yl)-5-(1-(4-(trifluoromethyl)phenyl)piperidin-4-yloxy)picolinamide] |
| < 100 nM | COC(=O)c1ccc(CN2CCC(NC(=O)c3ccc(OC4CCN(c5ccc(C(F)(F)F)cc5)CC4)cn3)CC2)cc1 [1-8, methyl 4-((4-(5-(1-(4-(trifluoromethyl)phenyl)piperidin-4-yloxy)picolinamido)piperidin-1-yl)methyl)benzoate] |
| 100 to 500 nM | CC(C)(C)OC(=O)N1CCC(NC(=O)c2ccc(OC3CCN(c4ccc(C(F)(F)F)cc4)CC3)nc2)CC1 [1-9, tert-butyl 4-(6-(1-(4-(trifluoromethyl)phenyl)piperidin-4-yloxy)nicotinamido)piperidine-1-carboxylate] |
| < 100 nM | O=C(NC1CCN(Cc2ccncc2)CC1)c1ccc(OC2CCN(c3ccc(C(F)(F)F)cc3)CC2)nc1 [1-10, N-(1-(pyridin-4-ylmethyl)piperidin-4-yl)-6-(1-(4-(trifluoromethyl)phenyl)piperidin-4-yloxy)nicotinamide] |
| < 100 nM | O=C(NC1CCN(Cc2ccc(F)cc2)CC1)c1ccc(OC2CCN(c3ccc(C(F)(F)F)cc3)CC2)nc1 [1-11, N-(1-(4-fluorobenzyl)piperidin-4-yl)-6-(1-(4-(trifluoromethyl)phenyl)piperidin-4-yloxy)nicotinamide] |
| 500 to 1000 nM | CC(C)(C)OC(=O)N1CCC(NC(=O)c2cc(OC3CCN(c4ccc(C(F)(F)F)cc4)CC3)ccn2)CC1 [1-12, tert-butyl 4-(4-(1-(4-(trifluoromethyl)phenyl)piperidin-4-yloxy)picolinamido)piperidine-1-carboxylate] |
| < 100 nM | O=C(NC1CCN(Cc2ccncc2)CC1)c1cncc(OC2CCN(c3ccc(C(F)(F)F)cc3)CC2)c1 [1-14, N-(1-(pyridin-4-ylmethyl)piperidin-4-yl)-5-(1-(4-(trifluoromethyl)phenyl)piperidin-4-yloxy)nicotinamide] |
| 1000 to 5000 nM | CC(C)(C)OC(=O)N1CCC(NC(=O)c2ccnc(OC3CCN(c4ccc(C(F)(F)F)cc4)CC3)c2)CC1 [1-15, tert-butyl 4-(2-(1-(4-(trifluoromethyl)phenyl)piperidin-4-yloxy)isonicotinamido)piperidine-1-carboxylate] |
| < 100 nM | N#Cc1ccc(CN2CCC(NC(=O)c3cncc(OC4CCN(c5ccc(C(F)(F)F)cc5)CC4)c3)CC2)cc1 [1-17, N-(1-(4-cyanobenzyl)piperidin-4-yl)-5-(1-(4-(trifluoromethyl)phenyl)piperidin-4-yloxy)nicotinamide] |
| < 100 nM | O=C(NC1CCN(Cc2cccnc2)CC1)c1cncc(OC2CCN(c3ccc(C(F)(F)F)cc3)CC2)c1 [1-18, N-(1-(pyridin-3-ylmethyl)piperidin-4-yl)-5-(1-(4-(trifluoromethyl)phenyl)piperidin-4-yloxy)nicotinamide] |
| 1000 to 5000 nM | O=C(NC1CCN(Cc2ccc(F)cc2)CC1)c1ccnc(OC2CCN(c3ccc(C(F)(F)F)cc3)CC2)c1 [1-22, N-(1-(4-fluorobenzyl)piperidin-4-yl)-2-(1-(4-(trifluoromethyl)phenyl)piperidin-4-yloxy)isonicotinamide] |
| 100 to 500 nM | O=C(N[C@@H]1CCN(Cc2ccncc2)C1)c1ccc(OC2CCN(c3ccc(C(F)(F)F)cc3)CC2)cn1 [1-25, (R)-N-(1-(pyridin-4-ylmethyl)pyrrolidin-3-yl)-5-(1-(4-(trifluoromethyl)phenyl)piperidin-4-yloxy)picolinamide] |
